From patent publication US11299461B2 (priority 2018, dated 2022)
pKi: −log10 of the molar value.

Target: LF 263-C catalytic domain (anthrax lethal factor) (Bacillus anthracis, UniProt P15917)
Assay: biochemical

LF 263-C catalytic domain (anthrax lethal factor), sequence (P15917 296-809 limits assumed): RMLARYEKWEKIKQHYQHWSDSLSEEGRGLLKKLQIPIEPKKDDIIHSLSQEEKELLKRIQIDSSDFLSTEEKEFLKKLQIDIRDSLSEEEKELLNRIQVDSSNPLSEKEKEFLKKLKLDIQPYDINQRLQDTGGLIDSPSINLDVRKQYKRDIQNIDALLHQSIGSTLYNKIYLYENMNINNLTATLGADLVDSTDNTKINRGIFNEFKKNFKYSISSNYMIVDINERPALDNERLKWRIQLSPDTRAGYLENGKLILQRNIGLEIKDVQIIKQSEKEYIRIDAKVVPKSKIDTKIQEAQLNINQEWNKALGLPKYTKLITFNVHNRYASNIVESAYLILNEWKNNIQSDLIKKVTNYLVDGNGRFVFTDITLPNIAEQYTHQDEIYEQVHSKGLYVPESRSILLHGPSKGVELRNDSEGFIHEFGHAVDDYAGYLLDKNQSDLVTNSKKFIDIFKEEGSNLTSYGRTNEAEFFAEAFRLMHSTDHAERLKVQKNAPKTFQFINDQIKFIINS

Compound | pKi
Cc1cc(C[C@H](CCCCN[C@H](C)c2ccc(C(F)(F)F)cn2)C(=O)NO)cc(C)c1F [Compound 14, (S)-2-(4-fluoro-3,5-dimethylbenzyl)-N-hydroxy-6-(((R)-1-(5-(trifluoromethyl)pyridin-2-yl)ethyl)amino)hexanamide] | 8.89
COc1ccc(CN(C)CCCC[C@@H](Cc2cc(C)c(F)c(F)c2)C(=O)NO)nc1 [Compound 38, (S)-2-(3,4-difluoro-5-methylbenzyl)-N-hydroxy-6-(((5-methoxypyridin-2-yl)methyl)(methyl)amino)hexanamide] | 8.31
Cc1cc(C[C@H](CCCCN[C@@H](c2ccc(F)cn2)C(C)C)C(=O)NO)cc(F)c1F [Compound 36, (S)-2-(3,4-difluoro-5-methylbenzyl)-6-(((R)-1-(5-fluoropyridin-2-yl)-2-methylpropyl)amino)-N-hydroxyhexanamide] | 9.14
CC[C@@H](NCCCC[C@@H](C[C@@H](OC)c1ccc(F)cc1)C(=O)NO)c1ncc(Cl)cc1Cl [Compound 54, (S)-6-(((R)-1-(3,5-dichloropyridin-2-yl)propyl)amino)-2-((R)-2-(4-fluorophenyl)-2-methoxyethyl)-N-hydroxyhexanamide] | 8.62
CO[C@H](C[C@H](CCCCN[C@H](C)c1ccc(Cl)cn1)C(=O)NO)c1ccc(F)cc1 [Compound 55, (S)-6-(((R)-1-(5-chloropyridin-2-yl)ethyl)amino)-2-((R)-2-(4-fluorophenyl)-2-methoxyethyl)-N-hydroxyhexanamide] | 8.80
Cc1cc(C[C@H](CCCCN[C@@H](c2ccc(Cl)cn2)C(C)C)C(=O)NO)cc(F)c1F [Compound 37, (S)-6-(((R)-1-(5-chloropyridin-2-yl)-2-methylpropyl)amino)-2-(3,4-difluoro-5-methylbenzyl)-N-hydroxyhexanamide] | 9.06
CCN(CCCC[C@@H](Cc1cc(C)c(F)c(C)c1)C(=O)NO)[C@H](C)c1ccc(C(F)(F)F)cn1 [Compound 15, (S)-6-(ethyl((R)-1-(5-(trifluoromethyl)pyridin-2-yl)ethyl)amino)-2-(4-fluoro-3,5-dimethylbenzyl)-N-hydroxyhexanamide] | 8.44
Cc1cc(C[C@H](CCCCN[C@H](c2ccc(F)cn2)C(C)C)C(=O)NO)cc(C)c1F [Compound 26, (S)-2-(4-fluoro-3,5-dimethylbenzyl)-6-(((S)-1-(5-fluoropyridin-2-yl)-2-methylpropyl)amino)-N-hydroxyhexanamide] | 9.06
CC[C@@H](NCCCC[C@@H](C[C@@H](OC)c1ccc(F)cc1)C(=O)NO)c1ccc(Cl)cn1 [Compound 56, (S)-6-(((R)-1-(5-chloropyridin-2-yl)propyl)amino)-2-((R)-2-(4-fluorophenyl)-2-methoxyethyl)-N-hydroxyhexanamide] | 9.10
CO[C@H](C[C@H](CCCCN[C@@H](c1ncc(Cl)cc1Cl)C(C)C)C(=O)NO)c1ccc(F)cc1 [Compound 53, (S)-6-(((R)-1-(3,5-dichloropyridin-2-yl)-2-methylpropyl)amino)-2-((R)-2-(4-fluorophenyl)-2-methoxyethyl)-N-hydroxyhexanamide] | 8.21
CO[C@H](C[C@H](CCCCN[C@@H](c1ccc(F)cn1)C(C)C)C(=O)NO)c1ccc(F)cc1 [Compound 48, (S)-2-((R)-2-(4-fluorophenyl)-2-methoxyethyl)-6-(((R)-1-(5-fluoropyridin-2-yl)-2-methylpropyl)amino)-N-hydroxyhexanamide] | 9.21
Cc1cc(N[C@H](CCCCN[C@@H](c2ccc(F)cn2)C(C)C)C(=O)NO)cc(C)c1F [Compound 3, (R)-2-((4-fluoro-3,5-dimethylphenyl)amino)-6-(((R)-1-(5-fluoropyridin-2-yl)-2-methylpropyl)amino)-N-hydroxyhexanamide] | 9.70
Cc1cc(C[C@H](CCCCN[C@@H](c2ccc(F)cn2)C(C)C)C(=O)NO)cc(Cl)c1F [Compound 30, (S)-2-(3-chloro-4-fluoro-5-methylbenzyl)-6-(((R)-1-(5-fluoropyridin-2-yl)-2-methylpropyl)amino)-N-hydroxyhexanamide] | 9.60
